Results reported in patent US20240293344A1, “Unsaturated Hydroxamic Acid Derivatives and Their Use for the Treatment and Prevention of an Ammonia-Associated Disease or Disorder” (Versantis AG, priority 2021, published 2024).
Read-outs that look alike come from different tables or passages of the source.

Legend:
[1] = test system: mixture of E. coli strains (wp2 [pKM101] and wp2 uvrA); assay: Ames test (Ames MPF Penta 1), E. coli strain mixture; type: cell-based; conditions: with or without metabolic activation (S9)
Description: A commercial microplate format test kit (Ames MPF™ Penta 1, Xenometrix, Switzerland) was used for this experiment. […] The mutagenicity of the three hydroxamic acids was investigated in four S. typhimurium strains (TA98, TA100, TA1535, TA1537) and in the mixture of two E. coli strains (wp2 [pKM101] and wp2 uvrA) with and without metabolic activation (S9 fraction) according to the manufacturer's protocol.

bacterial urease = assay: Rat caecum content assay (urease inhibitory activity, ammonia production from urea); type: cell-based, bacteria of rat caecum content
Method: To evaluate the inhibitory activity of HAs, the inventors first established an in vitro assay using rat caecum content.
The use of caecum content samples for the initial screening of urease inhibitors allowed to rapidly identify stable and membrane permeable inhibitors that cover a broad spectrum of bacterial ureases present in the gastrointestinal tract.
According to the herein established protocol, rat caecum content provided by the ETH Phenomics center was diluted in 200 mM potassium phosphate monobasic buffer pH 6.8 and centrifuged at 100×g to remove large particles. The supernatant with dispersed bacteria was collected, mixed with urea and then incubated with an increasing range of inhibitor concentrations for 30 min at 37° C. with constant shaking. In this setup initial concentrations of bacteria and urea were adjusted to the values that lead to the production of ammonia at a final concentration of approximately 1000 μM. Bacterial urease converts urea to ammonia, which was quantified by an enzymatic assay (Ammonia assay, Randox Laboratories, UK).
The established assay was then used to evaluate the potency of commercially available HAs as well as synthesized HAs of the present disclosure. As most of the tested HAs have low aqueous solubility, cyclodextrins were used to prepare water-soluble formulations of the compounds. In this study, a stock solution of acetohydroxamic acid (AHA) was prepared in DMSO, and stock solutions of octanohydroxamic acid (OHA) and 2-octynohydroxamic acid (2-octynoHA) were prepared by dissolving them in aqueous solutions of 2-hydroxypropyl-p-cyclodextrin (HPβCD) in 1:2 and 1:4 molar ratios, respectively. The obtained mixtures were sonicated and heated at 37° C. until fully dissolved.
Besides 2-octynoHA, the urease inhibitory activity of other unsaturated alkylated HAs consisting of 8 carbons was assessed. These included 2-octenohydroxamic acid (2-octenoHA), 3-octenohydroxamic acid (3-octenoHA), 3-octynohydroxamic acid (3-octynoHA) and 7-octynohydroxamic acid (7-octynoHA). Prior to assessing potency in the rat caecum content assay, stock solutions of 2-octenoHA and 3-octenoHA were prepared using HPβCD solution (1:4 molar ratio of HA to HPβCD), stock solutions of 3-octynoHA and 7-octynoHA were prepared using mixture of 10% DMSO and HPβCD solution. The 7-octynoHA presented a lower potency than unsaturated alkylated HAs having a double/triple bond at positions 2 or 3.

[2] = test system: N-Nitrosodiethylamine induced liver disease in rats; assay: In vivo efficacy in N-nitrosodiethylamine (DEN) induced liver disease in rats, blood ammonia; design: species or system rat; conditions: gavage twice a day from day 3, n=10
Method: Efficacy of 2-octynoHA was assessed in male Sprague Dawley rats (Beijing Vital River Laboratory Animal Technology Co., Ltd, China) in a model of acute liver disease. The liver damage was induced by reoccurring intraperitoneal injections of N-nitrosodiethylamine (DEN) 60 mg/kg on days 1, 3, 5, and 7.
Four groups of rats were included. The first control group was treated with a solution of HPβCD 270 mg/kg (n=10). The second group was treated with a suspension of rifaximin 30 mg/kg (n=10). The third group was treated with a suspension of rifaximin 60 mg/kg (n=10). The fourth group was treated with 15 mg/kg of 2-octynoHA dissolved in HPβCD solution (1:1 molar ratio of 2-octynoHA to HPβCD) (n=10). All groups received the treatment via gavage twice a day from day 3 to day 8. Blood samples were collected sublingually on days 0, 6 and 8. Blood ammonia level was measured in collected samples using PocketChem™ (Arkray, Japan).

[3] = Pharmacokinetics in male beagle dogs (plasma); type: in vivo, dog; conditions: for bioavailability: dog
Description: The main objective of the experiment was to quantify the levels of 2-octynoHA in the plasma of male beagle dogs following I.V. administration of a solution of 2-octynoHA with HPβCD (1:1 molar ratio) (PK 1), oral (P.O.) administration of 2-octynoHA formulated in an uncoated gelatin capsule size 0 (PK 2), and oral administration of 2-octynoHA formulated in a coated (Eudragit S100 15% w/w, triethyl citrate 5% w/w, isopropyl alcohol 40% w/w, ethanol 40% w/w) gelatin capsule size 0 for colonic delivery (PK 3) (Table Ill). For each of the studies, three animals were administered with a single dose of the corresponding treatment. Plasma samples were collected at pre-determined time points (Table Ill).
In PK 1, the plasma samples were extracted by protein precipitation prior to analysis. In brief, 40 μL plasma was precipitated with 2 volumes (80 μL) of an organic solvent solution consisting of acetonitrile:methanol (80:20 v/v) containing 1% formic acid. Samples were vortex-mixed and centrifuged at 13,000 rpm. 100 μL of supernatant were further diluted with 100 μL water containing 0.1% formic acid (final dilution factor of 6×). The sample extracts were transferred into a 96-well plate. Four μL plasma extract were injected for chromatographic separation and high resolution/accurate mass analysis. Separation was performed on a 5 cm C18 UPLC column, detection and quantification were performed on a quadrupole time-of-flight (QTof) mass spectrometer in the positive ion mode.
In both PK 2 and PK 3, prior to extraction, plasma samples (ca. 700 μL) were acidified by adding 15 μL of 50% phosphoric acid in water. Then, plasma samples (40 μL) were extracted by protein precipitation by adding 2 volumes (80 μL) of an organic solvent solution consisting of acetonitrile:methanol (80:20 v/v) containing 0.2% formic acid.
Samples were vortex-mixed and centrifuged at 13,000 rpm for 5 min. 100 μL of supernatant were further diluted with 100 μL water containing 0.1% formic acid (final dilution factor of 6×). The sample extracts were transferred into a 96-well plate. Five μL were injected for chromatographic separation and further mass analysis. The chromatographic separation was performed on a 10 cm C18 UPLC column and the MS detection and quantification was performed on a quadrupole time-of-flight (QTof) mass spectrometer in the positive ion mode.
Concentrations of 2-octynoHA was quantified based on the calibration curve. In the PK 1, 2-octynoHA was detected at the m/z 156.1 with the retention time (RT) of 4.12 min. […] Concentration values below the lower limit of quantitation (LLOQ) (i.e., lowest amount of an analyte in a sample that can be quantitatively determined with suitable precision and accuracy) were considered equal to zero.

[4] = test system: bile-duct ligated (BDL) rat model of hepatic encephalopathy; assay: In vivo efficacy in bile-duct ligated (BDL) rats, blood ammonia; conditions: 30 mg/kg twice a day by gavage in HPβCD solution, dropped from 53±30.31 μmol/L before treatment, n=4
Method: Efficacy of 2-octynoHA was evaluated in the bile-duct ligated (BDL) rat model, which is recommended by the International Society for Hepatic Encephalopathy and Nitrogen Metabolism (ISHEN) as an animal model of hepatic encephalopathy (HE) associated with chronic liver cirrhosis. This model is obtained by obstruction of the common bile duct that causes impairment of liver function and thereby development of hyperammonemia and low-grade HE.
In this study, on the DO blood ammonia levels were measured (n=4, 27.25±6.18 μmol/L) using PocketChem™ (Arkray, Japan) after which all rats were subjected to the BDL surgery. Right before surgery all animals were given injection of slow-release buprenorphine (lasting 72 h) between the shoulder blades. Then, animals were anesthetized with isoflurane in O2. Depth of anesthesia was checked by toe-pinching. Further, a midline incision was made (2 cm), and then the common bile duct was isolated of surrounding tissue, tightly ligated twice with silk suture and cut between the 2 ligations. Abdominal incision was closed with Vicryl™ 4-0 for muscle layers; skin was closed with staples and one drop of Vetbond™ tissue glue was applied to secure closing. Animals were then placed on heating pad for recovery. For the first 4 weeks post-surgery, animals were monitored for pain level, extent of jaundice, body weight (BW) and disease scores. […]

[5] = test system: S. typhimurium strains (TA98, TA100, TA1535, TA1537); assay: Ames test (Ames MPF Penta 1), S. typhimurium strains
Description: A commercial microplate format test kit (Ames MPF™ Penta 1, Xenometrix, Switzerland) was used for this experiment. The most commonly used strains in the Ames tests, S. typhimurium with point mutations in the histidine operon and E. coli with mutations in the tryptophan operon were utilized as the model systems. The mutagenicity of the three hydroxamic acids was investigated in four S. typhimurium strains (TA98, TA100, TA1535, TA1537) and in the mixture of two E. coli strains (wp2 [pKM101] and wp2 uvrA) with and without metabolic activation (S9 fraction) according to the manufacturer's protocol.
Bacteria were exposed to 6 concentrations of the test compounds, solvent control (DMSO) and positive control substances (concentrations listed in Tables I-II below) for 90 min in the medium containing enough histidine for S. typhimurium or tryptophan for E. coli to support cell growth. After that, the cultures media were diluted with pH indicator solution lacking histidine or tryptophan and aliquoted into 48 wells of a 384-well plate. Within 48 hours, media containing cells that reverted to amino acid prototrophy turned yellow as bacteria metabolism reduced the pH of the media. The number of yellow wells containing revertant colonies was counted for each dose of the test compounds and compared to the solvent control.

[6] = Stability of 2-octynoHA in solution (UHPLC-UV); type: physicochemical
Method: Preliminary stability of 2-octynoHA was assessed in HBSS pH 7.4 supplemented with HEPES 15 mM and compared to stability of the molecule in ultra-pure water.
Both solutions of 2-octynoHA were prepared to a final concentration of 0.5 mg/mL. 2-octynoHA was incubated for ca. 20 min at 37° C. until fully dissolved in the corresponding media. Once solutions were prepared, they were subjected to UHPLC-UV analysis within ca. 1 h while being kept at room temperature. For chromatographic separation and spectrophotometric analysis, 2 μL of each solution were injected. The chromatographic separation was performed on a 10 cm Polar C18 UHPLC column with a mobile phase composed of water, acetonitrile and formic acid 0.1%.
Detection was performed on a diode array detector by monitoring UV absorbance at 200 nm. 2-octynoHA was detected at 200 nm with RT=5.36 min in both solutions.
In order to identify the product of degradation, a solution of 2-octynoHA 10 mM was prepared in phosphate buffer (KH2PO4 200 mM pH 6.8) and left to incubate overnight at 37° C. […] The product of degradation was then extracted with chloroform, the organic phase was collected, dried over Na2SO4 and filtered. The solvent was evaporated, the obtained substance was dissolved in deuterated dimethyl sulfoxide (DMSO-d6) for ^1H NMR analysis.

Caco-2 cells [7] = assay: Cytotoxicity in Caco-2 cells (CCK-8); conditions: 24 h; for Caco-2 cell viability (percentage of the medium control): 10 mM
Method: (§1) The compounds used were 2-octynoHA, OHA (Tokyo Chemical Industry Co., Ltd.; Japan) and AHA (Sigma-Aldrich, St. Louis, MO) The human colorectal adenocarcinoma cell line Caco-2 was obtained from American Type Culture Collection. The cells were cultured in complete medium containing DMEM (Dulbecco's modified Eagle's medium) high glucose, GlutaMax™, pyruvate (Thermo Fisher Scientific, Waltham, MA) supplemented with 10% fetal bovine serum (Thermo Fisher Scientific, Waltham, MA), 1% penicillin-streptomycin (Thermo Fisher Scientific, Waltham, MA) and 15 mM HEPES (Thermo Fisher Scientific, Waltham, MA). The cells were incubated at 37° C. in a humidified atmosphere with 5% CO2. Caco-2 cells were used in the experiments from passage 50 to 60 and were tested negative for mycoplasma.
(§2) The cytotoxicity of HAs was assessed using Cell Counting Kit-8 (CCK-8, Sigma-Aldrich, St. Louis, MO), a colorimetric assay based on tetrazolium salt WST-8 which is reduced by dehydrogenases in cells to an orange-colored formazan. The absorbance of formazan at 450 nm is directly proportional to the number of living cells.
(§3) In order to test cytotoxicity of HAs, Caco-2 cells were seeded in a 96-well plate at a density of 5×10^3 cell/well and grown for 1 day. Then, cells were treated with an increasing range of inhibitors' concentrations and incubated for another 24 h at 37° C., 5% CO2. […] After incubation, cells were washed with phosphate buffered saline (Thermo Fisher Scientific, Waltham, MA), treated with DMEM without phenol red (Thermo Fisher Scientific, Waltham, MA) containing CCK-8 reagent and incubated for another 2 h at 37° C. in a humidified atmosphere with 5% CO2. The absorbance of medium at 450 nm was measured using Tecan Infinite M200 PRO plate reader. Caco-2 cell viability was calculated as a percentage of the medium control.

Caco-2 cells [8] = conditions: human, 24 h
Method: as §1, §2, §3

[9] = TA98, TA100, TA1535, TA1537, with or without metabolic activation (S9)
[10] = rat caecum content with urea, 30 min at 37° C., pH 6.8; read-out: IC50, bacterial urease inhibitory activity

## CCCCCC#CC(=O)NO [2-octynoHA, N-hydroxyoct-2-ynamide]
[1]
  mutagenicity (reverse mutations): not mutagenic up to 1 mM
Bacterial urease; read-out: IC50, bacterial urease inhibitory activity; rat caecum content with urea, 30 min at 37° C., pH 6.8
  IC50: ~38 µM
[2]; 15 mg/kg in HPβCD solution
  blood ammonia level on day 6: 20 ± 9.6 µM
[3]; PK 3: P.O., 300 mg per dog, coated (Eudragit S100) gelatin capsule for colonic delivery
  plasma concentration: below LLOQ
[3]; male, beagle, plasma, po, 300 mg, uncoated gelatin capsule, dose-adjusted AUC0-t of PK 1 and PK 2, read-out: bioavailability after oral administration
  bioavailability: ~4.5%
[3]; male, beagle, plasma, po, delivery via a colonic capsule, read-out: oral bioavailability
  bioavailability: ~0%
[3]; male, beagle, plasma, po, PK 2: P.O., 300 mg per dog, uncoated gelatin capsule
  Tmax: 30 min
[3]; male, beagle, plasma, po, PK 2: P.O., 300 mg per dog, uncoated gelatin capsule, read-out: AUC0-t (t=12 h)
  AUC(0-t): ~213 ng·h/mL
[3]; plasma, iv, PK 1: I.V., 100 mg per dog, solution with HPβCD (1:1), male beagle dogs, read-out: AUC0-t (t=4 h)
  AUC(0-t): ~1780 ng·h/mL
[4]
  mean blood ammonia level three days after initiating treatment: 11 ± 5.68 µmol/L
[5]; [9]
  mutagenicity (reverse mutations): not mutagenic up to 1 mM
[6]; 0.5 mg/mL in HBSS pH 7.4 with HEPES 15 mM, ca. 20 min at 37° C., analysed within ca. 1 h at room temperature
  degradation in solution (UHPLC-UV): degraded
[6]; 0.5 mg/mL in ultra-pure water, ca. 20 min at 37° C., analysed within ca. 1 h at room temperature
  degradation in solution (UHPLC-UV): No degradation
[6]; 10 mM in KH2PO4 200 mM pH 6.8, overnight at 37° C.
  degradation in solution (UHPLC-UV): Complete degradation
Caco-2 cells [7]
  Caco-2 cell viability (percentage of the medium control): ca. 6%
Caco-2 cells [7]; Caco-2 cells
  concentration up to which no cytotoxicity was detected: up to 1 mM

## CC(=O)NO [AHA, N-hydroxyacetamide]
Caco-2 cells [8]
  concentration up to which no cytotoxicity was detected: up to 10 mM
Bacterial urease; [10]
  IC50: 7300 µM
[5]; TA98, TA100 and TA1537 strains at 5 and 10 mM
  mutagenicity (reverse mutations): mutagenic potential was detected

## CO[C@H]1/C=C/O[C@@]2(C)Oc3c(C)c(O)c4c(O)c(c5c(nc6cc(C)ccn65)c4c3C2=O)NC(=O)/C(C)=C\C=C\[C@H](C)[C@H](O)[C@@H](C)[C@@H](O)[C@@H](C)[C@H](OC(C)=O)[C@@H]1C [rifaximin, reference compound]
[2]; 30 mg/kg suspension
  blood ammonia level on day 6: 44 ± 22.4 µM

## C#CCCCCCC(=O)NO [7-octynoHA, 7-octynohydroxamic acid]
Bacterial urease; rat caecum content assay, FIG. 6
  potency compared with unsaturated alkylated HAs having a double/triple bond at positions 2 or 3: lower potency

## OO [hydrogen peroxide, reference compound]
Caco-2 cells [7]
  Caco-2 cell viability (percentage of the medium control): 1.79±6%

## CCCCCCCC(=O)NO [OHA, N-hydroxyoctanamide, reference compound]
[1]
  mutagenicity (reverse mutations): not mutagenic
Bacterial urease; [10]
  IC50: 230 µM
[5]; [9]
  mutagenicity (reverse mutations): not mutagenic
Caco-2 cells [7]
  Caco-2 cell viability (percentage of the medium control): no live cells were observed
